Measurements reported in publication PMC3992874 (Journal of nuclear medicine : official publication, Society …, 2013).

Experiments:
[1] = test system: VCAM-1 expression, SKOV3ip1 (platinum resistant) tumors; assay type: in vivo, mouse; conditions: SKOV3ip1 mice, single IP 25 mg/kg; 111In-tVCAM-4 omentum biodistribution; n=3
[2] = patients; cited from earlier work
LP9 mesothelial cells = assay: Viability of carboplatin-treated LP9 mesothelial cells; assay type: cell-based, human; conditions: increasing concentrations up to 1 μg/ml, 24 hours, data not shown
VCAM-1 = conditions: previous work; cited from earlier work

| Compound | VCAM-1 expression above baseline 2 days after treatment [1] [%] | injected dose excreted within 24 hours [2] | effect on cell viability (LP9 mesothelial cells) | affinity for VCAM-1 (VCAM-1) |
| --- | --- | --- | --- | --- |
| N.N.O=C([O-])C1(C(=O)[O-])CCC1.[Pt+2] [carboplatin] | 50 | up to 80% | None of the concentrations tested altered |  |
| (βAKTLLPTPGGS(PEG5000))KKKDOTAβA-NH2 [tVCAM-4] |  |  |  | high affinity |
